Source: article PMC12040169 (PLOS Biology, 2025)

Assay: in vitro
Conditions: human, hela cells, % viability

Compound | viability at 28.5 h, 10 µM [%] | viability at 28.5 h, 10 µM (bulk resorufin, single well) [%]
COc1nccnc1-c1ccc(SC)cc1 [CBK106795] | 95 | 
Cc1cc(NC(=O)CCn2c(C(F)F)cc3cccnc32)nn1C [CBK285071] | 90.2 | 
CC1(C)Cc2ccccc2C(NC(Cc2ccccc2)C(=O)O)=N1 (centres unmarked) [CBK262533] | 107 | 
S=C(Nc1cccnc1)N[C@H]1CC[C@@]2(c3cccnc3)CCN(Cc3ccccc3)[C@H]2C1 [CBK028450] | 94.8 | 
CCOC(=O)CN1CCCN(c2c(F)cc(C#N)cc2F)CC1 [CBK304148] | 86.9 | 
OCCN1CSC(=S)N(CCc2ccc(Cl)cc2)C1 [CBK015713] | 122 | 
CC(CC(=O)N1CCCC(c2cc3cccnc3[nH]2)C1)n1cccn1 (centres unmarked) [CBK284996] | 86.2 | 
Cc1ccc(NC(=O)c2cnccn2)c(C)n1 [CBK200291] | 97.2 | 
CN1C(=O)COc2ccccc2C/C=C/C[C@@H]2[C@H]1CCCN2C(=O)CCCNc1ncccn1 [CBK292168] | 112 | 
O=C(CSc1nc2ccccc2s1)OCC(=O)c1cccc([N+](=O)[O-])c1 [CBK262361] | 111 | 
CN(C)c1ccc(-c2cnc3[nH]c(=O)n(C4CCCC4)c3n2)cc1 [CBK064964] | 98 | 
N#Cc1ccc(C(=O)NCC2(N3CCOCC3)CCSC2)cc1 (centres unmarked) [CBK305602] | 95.3 | 
CC(=O)c1c(C)[nH]c(C(=O)N2CCC(C#N)(c3ccccc3)CC2)c1C [CBK091404] |  | 93.3
CC(C)c1cc(C(=O)N2CCNC(c3ccccc3)C2)nc2ncnn12 (centres unmarked) [CBK306533] | 91.9 | 
O=C(O)c1ccc(-c2n[nH]c(=O)c3ccccc23)cc1 [CBK287148] | 108 | 
COc1ccc(-c2cc(C(F)(F)F)nc(SCC(=O)NN3CCN(C)CC3)n2)cc1 [CBK266115] | 96.5 | 
C=CCNC(=O)C1(Cc2ccccc2-c2cccnc2)CCOCC1 [CBK285217] | 109 | 
COc1ccc(C(=O)C2=C(O)C(=O)N(CCN(C)C)C2c2cccc([N+](=O)[O-])c2)cc1Cl (centres unmarked) [CBK266474] | 102 | 
CSc1nnc(-c2cccc(C)c2)n1CC1CCCCC1 [CBK085418] | 100 | 
Cc1c(NC(=O)CCCC(=O)O)c(=O)n(-c2ccccc2)n1C [CBK286532] | 93.1 | 
COc1ccc(C(NC(=O)c2c(C)nc3sccn23)C2CC(O)C2)cn1 (centres unmarked) [CBK307330] | 95.3 | 
CC(C)C(=O)Nc1cc2ccccc2c(-c2ccc(N(C)C)cc2)n1 [CBK085776] | 90.6 | 
Cc1ccc(S(=O)(=O)Nn2cnnc2)cc1 [CBK027263] | 108 | 

Compound | viability at 28.5 h, 10 µM [%] | viability at 28.5 h, 10 µM (bulk resorufin, single well) [%]
O=C(Cn1c(C2CCCNC2)cc2cccnc21)N1CCCCCC1 (centres unmarked) [CBK285014] | 86.3 | 
Cc1ccccc1OCc1nnc(SCC(=O)NC2CCCCC2)n1C [CBK265817] | 82.5 | 
CN1CCC[C@H]1C(=O)Nc1cc(-c2ccncc2)c[nH]c1=O [CBK116587] | 107 | 
Clc1ccc(Nc2ncnc3c2cnn3-c2ccc(Cl)cc2)cc1 [CBK287356] | 86.1 | 
O=C(NCCOc1ccccc1)N1CCCC(CO)C1 (centres unmarked) [CBK156058] | 99.6 | 
O=C1c2ccccc2C(=O)N1CCCc1nn2c(-c3cccnc3)nnc2s1 [CBK270140] | 80.2 | 
CCOc1ccccc1N(CC(=O)O)S(=O)(=O)c1ccc(Cl)cc1 [CBK287144] | 110 | 
[2H]C(C(=O)NCc1ccc2c(c1)CCC2)n1cc(-c2ccc(CN3CCC(C)CC3)cc2)nn1 (centres unmarked) [CBK166081-L1] | 97.7 | 
CC(C)(C)OC(=O)N1CCN(c2ccc([N+](=O)[O-])cn2)CC1 [CBK000134] | 95.6 | 
CN(C)C(=O)c1ccc(-c2ncc(OCCN3CCOCC3)nc2N)cc1 [CBK145183] | 93.1 | 
O=C(COc1ccc2ccccc2c1)Nc1ccc(CN2CCOCC2)cc1 [CBK265754] | 121 | 
O=C(CCc1ccc(O)c(O)c1)NNC(=S)Nc1ccccc1C(F)(F)F [CBK267104] | 94.2 | 
COc1ccc(C)cc1S(=O)(=O)Nc1cc(OCCN2CCOCC2)c2occc2c1 [CBK067419C] | 87.7 | 
Cc1nnc(SCC(=O)NC(C)(C)C)n1NCc1cccc(Br)c1 [CBK266517] | 101 | 
O=C1COc2ccccc2CCCCC2(CCCN(C(=O)CCN3CCCC3=O)C2)CN1 (centres unmarked) [CBK291998] | 103 | 
CC(C)Nc1nccnc1OCCN1CCOCC1 [CBK113410] | 104 | 
CC(NC(=O)c1ccccc1Cn1cncn1)C1CC2CCC1C2 (centres unmarked) [CBK281654] | 85.8 | 
CC1(C)[C@H](Cc2cc(CC3CCCCC3)on2)C[C@@H]1NC(=O)N1CCOCC1 [CBK289258] | 98.6 | 
Fc1ccc(CN2CCC(c3nnc4n3CCCCC4)CC2)cc1F [CBK283356] | 86.3 | 
COc1cccc(C(=O)NC(c2ccc([N+](=O)[O-])cc2)c2c(O)ccc3ccccc23)c1 (centres unmarked) [CBK263971] | 84.2 | 
Cn1c(-c2ccc(CN3CCCC3)cc2)cc2onc(-c3cccnc3)c2c1=O [CBK048501C] | 99.1 | 
CC(=O)N1CCC(Cn2nc(-c3ccccc3)ccc2=O)CC1 [CBK282405] | 109 | 
Cc1csc(NS(=O)(=O)CC(C)C)n1 [CBK021434] | 89.1 | 

Compound | viability at 28.5 h, 10 µM [%] | viability at 28.5 h, 10 µM (bulk resorufin, single well) [%]
Cc1ccc(CC(=O)N2CCC(Cc3ccccc3-c3ccccc3C)(C(N)=O)CC2)cc1 [CBK285727] | 98.2 | 
O=C(O)CC(NCc1ccccc1)C(=O)Nc1cccc(F)c1 (centres unmarked) [CBK266956] | 92.3 | 
CCOC(=O)c1c[nH]c2nc(COc3ccccc3)nn2c1=O [CBK268088] | 107 | 
C[C@@H](Nc1cncc(-c2ccccc2CO)n1)c1ccccc1 [CBK065543] | 106 | 
CCN(C(=O)c1cnc2scc(C)n2c1=O)c1ccccc1 [CBK287452] | 105 | 
Cc1nnc(CS(=O)(=O)Cc2csc(C(C)(C)C)n2)n1C1CC1 [CBK305489] | 109 | 
c1csc(CN2CCNCC2)c1 [CBK027324] | 105 | 
COc1ccc(-c2nc(C3CCNCC3)n3ccccc23)cc1 [CBK035971] | 92.9 | 
Cc1nc(C)c(C(=O)N2CC(C(=O)N3CCN(c4ccccc4)CC3)C2)s1 [CBK285666] | 93.4 | 
Cc1ccc(C(=O)NNC(=O)/C=C\C(=O)O)cc1 [CBK261842] | 86.9 | 
CNc1nc2ccccc2n1CC(=O)c1ccccc1 [CBK262251B] | 96 | 
O=C1c2ccc(S(=O)(=O)c3ccc4c(c3)C(=O)N(c3nccs3)C4=O)cc2C(=O)N1c1nccs1 [CBK261335] | 105 | 
C/C(=N\NS(=O)(=O)c1ccc(C)cc1)C(C)(C)CC(=O)O [CBK263601] | 102 | 
CN1C(=O)c2ccccc2C(=O)[C@@]2(C)CN(CC(C)(C)C)C[C@@H]12 [CBK283481] | 93.8 | 
CCC(=O)NC1Cc2cccc3c2N(CCC3)C1=O (centres unmarked) [CBK010667] | 113 | 
CCn1ncc2c1CCCC2NC1CCN(c2ccc(C#N)cc2)C1=O (centres unmarked) [CBK305200] | 96.8 | 
O=C(O)c1ccc(NC2CCS(=O)(=O)C2)cc1 (centres unmarked) [CBK287168] | 82.3 | 
Cc1nnc(SCc2cc(=O)[nH]c(N3CCN(C)CC3)n2)s1 [CBK270106] | 91.7 | 
O=C(Cc1c[nH]c2ccccc12)Nc1cnc(-c2cccc(OC(F)(F)F)c2)c(-c2cccnc2)n1 [CBK036863] | 108 | 
Cc1ccc(C2=CCN(CC(N)=O)CC2)o1 [CBK283570] | 98.3 | 
O=C(c1c(F)cccc1Cl)N1CCN(Cc2ccc3c(c2)OCO3)CC1 [CBK074724] | 93.9 | 
c1ccc(CSc2nnc(COc3cccc4ccccc34)n2Cc2ccccc2)cc1 [CBK267215] | 116 | 
O=S(=O)(c1ccccc1)N(Cc1cc2ccccc2nc1O)CC1CCCO1 (centres unmarked) [CBK269424] | 93.3 | 

Compound | viability at 28.5 h, 10 µM [%] | viability at 28.5 h, 10 µM (bulk resorufin, single well) [%]
O=C(O)C1CCN(C(=O)CSc2nc3ccccc3o2)CC1 [CBK286557] | 91.6 | 
CC(NC(=O)c1cccc(-n2cnnc2)c1)c1ccc2c(c1)CCC2 (centres unmarked) [CBK282707] | 91.9 | 
CC(C)(C)OC(=O)N1CCC[C@]2(CCC(=O)N2)[C@H]1c1cccc(F)c1 [CBK283463] | 96.7 | 
O=C(O)CCCC(=O)Nc1ccc(O)cc1 [CBK263567] | 90.9 | 
O=C(COc1ccccc1)NC(=S)Nc1cc(-c2nc3ncccc3o2)ccc1Cl [CBK264380] | 89.3 | 
O=C(c1cscn1)N1CCC(Cc2ccccc2)CC1 [CBK200188] | 103 | 
O=C(N/N=C/c1cccc(OC(=O)c2cccc(Br)c2)c1)c1ccncc1 [CBK262249] | 112 | 
CC(=O)NC(CCC(N)=O)C(=O)N1CC2(CCCC2)c2c(F)cccc21 (centres unmarked) [CBK306412] | 82.9 | 
Cn1cccc1-c1cc(C(=O)N/N=C/c2cccc(O)c2)[nH]n1 [CBK263397] | 89.9 | 
CCCc1csc(C2CN3CCCC3CO2)n1 (centres unmarked) [CBK304799] | 88.3 | 
COC(=O)c1ccc(NC(=O)CSc2nnc(-c3ccc(C)cc3)n2N)cc1 [CBK266114] | 89.9 | 
COc1ccc([C@@]23CC[C@@H](NC(=O)c4ccc(Br)c(C)c4)C[C@@H]2N(C)CC3)cc1OC [CBK076656T] | 81.2 | 
COC1CCC(C(=O)N2CCC(COc3ccc(-c4ccc(S(C)(=O)=O)cc4)cn3)CC2)CC1 (centres unmarked) [CBK161995] | 80.3 | 
COc1ncccc1C(=O)N1CCc2ccccc2C1 [CBK200336] | 96.9 | 
COc1ccccc1NC(=O)c1ccc(-c2nnc(-c3ccccc3)o2)cc1 [CBK266533] | 107 | 
O=C(c1ccco1)N1CCC(n2cnc3cccnc32)CC1 [CBK283939] | 91.6 | 
COc1ccc(C2=NN(c3ccc([N+](=O)[O-])cc3)C(=O)/C2=C\NCCN2CCOCC2)cc1 [CBK264563] | 114 | 
Cc1ccc(-n2nc(C(=O)O)c(C)c(C#N)c2=O)cc1C [CBK286987] | 93.3 | 
CC(NC(=O)Cc1cccs1)c1nc2cccnc2n1C(C)C (centres unmarked) [CBK283828] | 81 | 
CCCn1ncnc1C(C)NC(=O)Nc1ccnn1CC(C)C (centres unmarked) [CBK307545] | 116 | 
